Results: PMC6438990 (Cellular and Molecular Gastroenterology and Hepatology, 2019)

Molecular target: T1, SLC26A3 (DRA, down-regulated in adenoma) (Homo sapiens, UniProt P40879)
T1 sequence (P40879 1-764): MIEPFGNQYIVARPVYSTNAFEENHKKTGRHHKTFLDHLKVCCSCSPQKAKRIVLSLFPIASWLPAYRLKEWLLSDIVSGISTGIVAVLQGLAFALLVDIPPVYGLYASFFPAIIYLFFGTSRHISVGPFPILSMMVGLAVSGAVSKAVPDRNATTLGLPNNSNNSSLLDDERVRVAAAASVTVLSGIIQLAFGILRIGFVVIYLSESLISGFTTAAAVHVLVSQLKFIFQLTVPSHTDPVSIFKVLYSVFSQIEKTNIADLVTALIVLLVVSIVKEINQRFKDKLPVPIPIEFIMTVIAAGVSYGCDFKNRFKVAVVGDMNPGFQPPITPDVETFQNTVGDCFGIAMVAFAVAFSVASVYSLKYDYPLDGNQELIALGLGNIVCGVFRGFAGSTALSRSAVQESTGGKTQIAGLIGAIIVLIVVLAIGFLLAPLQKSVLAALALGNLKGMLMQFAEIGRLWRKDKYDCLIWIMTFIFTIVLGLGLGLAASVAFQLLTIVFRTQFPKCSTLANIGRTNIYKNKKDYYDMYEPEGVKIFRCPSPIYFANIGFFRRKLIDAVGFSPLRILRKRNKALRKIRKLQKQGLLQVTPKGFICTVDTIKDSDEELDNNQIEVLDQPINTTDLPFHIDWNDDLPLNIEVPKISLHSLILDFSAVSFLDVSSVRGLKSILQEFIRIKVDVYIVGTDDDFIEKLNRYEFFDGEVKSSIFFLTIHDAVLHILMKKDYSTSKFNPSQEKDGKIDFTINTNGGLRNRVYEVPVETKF
Format: cell-based

Cc1c(CC(=O)O)c(=O)oc2c(C)c(OCc3cccc(Br)c3)ccc12 [DRAinh-A250] was tested, and the IC50 was 120 ± 40 nM.
